Biological target: human O-GlcNAcase (Homo sapiens (Human), UniProt O60502)
Experiment: Assay for determination of KI values for inhibition of O-GlcNAcase activity (fluorescence-based)
Type: biochemical
Settings: purified human O-GlcNAcase, 4-Methylumbelliferyl N-acetyl-β-D-glucosaminide substrate, pH 7.0, Cheng-Prusoff; read-out: Fluorescence-based hOGA Ki
Description: Assay for Determination of KI Values for Inhibition of O-GlcNAcase Activity
Experimental Procedure for Kinetic Analyses:
Enzymatic reactions are carried out in a reaction containing 50 mM NaH2PO4, 100 mM NaCl and 0.1% BSA (pH 7.0) using 2 mM 4-Methylumbelliferyl N-acetyl-β-D-glucosaminide dihydrate (Sigma M2133) dissolved in ddH2O, as a substrate. The amount of purified human O-GlcNAcase enzyme used in the reaction is 0.7 nM. Test compound of varying concentrations is added to the enzyme prior to initiation of the reaction. The reaction is performed at room temperature in a 96-well plate and is initiated with the addition of substrate. The production of fluorescent product is measured every 60 sec for 45 min with a Tecan Infinite M200 plate-reader with excitation at 355 nm and emission detected at […], with 4-Methylumbelliferone (Sigma M1381) used to produce a standard curve. The slope of product production is determined for each concentration of compound tested and plotted, using standard curve fitting algorithms for sigmoidal dose response curves. The values for a four parameter logistic curve fit of the data are determined.
KI values are determined using the Cheng-Prusoff equation; the Km of O-GlcNAcase for substrate is 0.2 mM.

human O-GlcNAcase, sequence (O60502 whole entry): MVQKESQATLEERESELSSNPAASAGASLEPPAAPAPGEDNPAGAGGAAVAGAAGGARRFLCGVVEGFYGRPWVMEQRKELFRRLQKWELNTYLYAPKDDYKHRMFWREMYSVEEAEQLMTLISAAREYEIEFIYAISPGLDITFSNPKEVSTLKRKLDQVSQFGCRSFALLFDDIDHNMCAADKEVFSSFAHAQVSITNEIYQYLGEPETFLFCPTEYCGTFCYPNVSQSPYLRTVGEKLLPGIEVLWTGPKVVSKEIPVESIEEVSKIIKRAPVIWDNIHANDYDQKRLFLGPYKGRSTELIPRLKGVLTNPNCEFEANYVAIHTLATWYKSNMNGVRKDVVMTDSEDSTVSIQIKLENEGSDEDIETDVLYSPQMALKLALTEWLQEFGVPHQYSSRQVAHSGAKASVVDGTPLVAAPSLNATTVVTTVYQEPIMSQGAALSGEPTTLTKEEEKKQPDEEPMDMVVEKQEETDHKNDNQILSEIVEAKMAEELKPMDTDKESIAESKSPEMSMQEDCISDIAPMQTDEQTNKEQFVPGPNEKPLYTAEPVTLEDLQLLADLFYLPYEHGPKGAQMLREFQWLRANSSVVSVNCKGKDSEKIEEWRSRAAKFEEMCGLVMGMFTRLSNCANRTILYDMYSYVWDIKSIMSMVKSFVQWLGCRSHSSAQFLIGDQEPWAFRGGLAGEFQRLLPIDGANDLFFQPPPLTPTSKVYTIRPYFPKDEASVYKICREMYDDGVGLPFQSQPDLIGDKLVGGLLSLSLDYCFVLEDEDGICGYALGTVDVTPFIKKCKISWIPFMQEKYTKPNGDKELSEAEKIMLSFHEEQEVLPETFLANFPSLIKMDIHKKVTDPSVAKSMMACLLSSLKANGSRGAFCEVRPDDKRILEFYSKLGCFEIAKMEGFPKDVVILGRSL

Structure (SMILES) | Ki
CC(=O)N[C@H]1CN(CCCc2ccccc2)[C@@H](CO)[C@@H]1O [Example 1, N-((3S,4R,5S)-4-hydroxy-5-(hydroxymethyl)-1-(3-phenylpropyl)pyrrolidin-3-yl)acetamide] | 16.5 µM
CC(=O)N[C@H]1CN[C@@H](CO)[C@@H]1O | 5.9 µM
CCCCN1C[C@H](NC(C)=O)[C@@H](O)[C@@H]1CO | 15 µM

— patent publication US9670195B2, “Glycosidase inhibitors and uses thereof” (Alectos Therapeutics Inc., priority 2012, dated 2017)
